Reference: patent US9700538B2, “Cardiovascular disease primary prevention agent for patients having high blood levels of high-sensitivity C-reactive protein” (MOCHIDA PHARMACEUTICAL CO., LTD., priority 2012, dated 2017)

System: subjects with no history of cardiovascular disease, blood hs-CRP value of at least 1.0 mg/L
Test: Hisayama epidemiologic study: events by administration of statin drug and EPA in the high hs-CRP group
Format: in vivo, human
Text: The Hisayama study is an epidemiologic study of cerebral stroke, cardiovascular disease, and the like that has been conducted with the residents of the town of Hisayama town (population, about 8,400) in Kasuya county of Fukuoka prefecture adjacent to Fukuoka city from 1961. The age and occupation distributions of the residents of Hisayama town were almost identical to those of Japan as a whole, and the residents can be regarded as an average group of Japanese people with substantially no bias. Features of the Hisayama study include participation of all residents (who are at least 40 years old), prospective cohort study, examination and home visit by the stuff of the study, consultation rate (at least 80%), autopsy rate (about 80%), and follow-up rate (at least 99%), and the most characteristic feature of this study is the high rate of autopsy. No diagnosis is more accurate than autopsy in finding out the accurate cause of the death, and the precision of the follow up study is also high. In addition, the Hisayama study periodically adds the residents who have reached 40 years old to the group every 5 years, and estimation of influence of the life style transition as well as change of risk factors was thereby enabled.
3,103 residents of 40 years old or older who were registered in 2002 were used for the subject excluding those who have history of cardiovascular disease and those with no data of EPA/AA ratio. Average follow-up period was 5.1 years.
The group with a blood hs-CRP value of at least 1.0 mg/L (high hs-CRP group) was extracted from the entire subjects. The blood hs-CRP value was quantitated by using a commercially available assay kit.
The high hs-CRP group was further divided into 4 groups by the administration and non-administration of the statin drug and the administration and non-administration of the EPA.
In the table, “statin (−)+EPA (−)” means that neither the statin drug nor the EPA was administered to a subject; “statin (+)+EPA (−)” means that the statin drug was administered but not the EPA; “statin (−)+EPA (+)” means that the statin drug was not administered despite the administration of the EPA; and “statin (+)+EPA (+)” means that both the statin drug and the EPA were administered. Furthermore, “event (−)” and “event (+)” […].

[1] = high hs-CRP group, EPA irrespective of statin, statin drug vs no statin within the group with no EPA
[2] = number of subjects, high hs-CRP group (hs-CRP ≧1.0 mg/L), average follow-up 5.1 years

## CC/C=C\C/C=C\C/C=C\C/C=C\C/C=C\CCCC(=O)O [EPA, all-cis-5,8,11,14,17-icosapentaenoic acid]
Entire subjects, irrespective of administration of the statin drug
  Cerebral stroke event occurrence (in words): no event occurred
[1]
  Cardiovascular disease event occurrence (in words): no event occurred
  Cerebral stroke event occurrence (in words): no event occurred
  Coronary artery disease event occurrence (in words): no event occurred
[2]
  Cardiovascular disease, Event (+): 0
  Cardiovascular disease, Event (−): 4
  Cerebral stroke, Event (+): 0
  Cerebral stroke, Event (−): 4
  Coronary artery disease, Event (+): 0
  Coronary artery disease, Event (−): 4
